According to patent US10246411B2, “(Z)-3,4,5-trimethoxystyrylbenzenesulfonamides as potential anticancer agents” (COUNCIL OF SCIENTIFIC & INDUSTRIAL RESEARCH, priority 2014, dated 2019):

Columns and labels:
HL-60(TB) = assay: In vitro cytotoxicity (NCI protocol, SRB), HL-60(TB); format: cell-based; settings: Homo sapiens, Leukemia HL-60(TB), 48 h exposure
SR = assay: In vitro cytotoxicity (NCI protocol, SRB), SR; settings: Homo sapiens, 48 h
HT29 = assay: In vitro cytotoxicity (NCI protocol, SRB), HT29; settings: Homo sapiens, HT-29, 48 h
A498 = assay: In vitro cytotoxicity (NCI protocol, SRB), A498; settings: Homo sapiens, A498, 48 h
PC-3 = assay: In vitro cytotoxicity (NCI protocol, SRB), PC-3; settings: Homo sapiens, PC-3, 48 h
HOP92 = assay: In vitro cytotoxicity (NCI protocol, SRB), HOP92; settings: Homo sapiens, HOP-92, 48 h
786-0 = assay: In vitro cytotoxicity (NCI protocol, SRB), 786-0; settings: Homo sapiens, 786-0, 48 h
MOLT-4 = assay: In vitro cytotoxicity (NCI protocol, SRB), MOLT-4; settings: Homo sapiens, MOLT-4, 48 h
TK-10 = assay: In vitro cytotoxicity (NCI protocol, SRB), TK-10; settings: Homo sapiens, TK-10, 48 h
HOP-62 = assay: In vitro cytotoxicity (NCI protocol, SRB), HOP-62; settings: Homo sapiens, HOP-62, 48 h
HCT-15 = assay: In vitro cytotoxicity (NCI protocol, SRB), HCT-15; settings: Homo sapiens, HCT-15, 48 h
SW-620 = assay: In vitro cytotoxicity (NCI protocol, SRB), SW-620; settings: Homo sapiens, SW-620, 48 h
SF-268 = assay: In vitro cytotoxicity (NCI protocol, SRB), SF-268; settings: Homo sapiens, SF-268, 48 h
SF-295 = assay: In vitro cytotoxicity (NCI protocol, SRB), SF-295; settings: Homo sapiens, SF-295, 48 h
SF-539 = assay: In vitro cytotoxicity (NCI protocol, SRB), SF-539; settings: Homo sapiens, 48 h
DU-145 = assay: In vitro cytotoxicity (NCI protocol, SRB), DU-145; settings: Homo sapiens, DU-145, 48 h
HCT-116 = assay: In vitro cytotoxicity (NCI protocol, SRB), HCT-116; settings: Homo sapiens, HCT-116, 48 h
SNB -19 = assay: In vitro cytotoxicity (NCI protocol, SRB), SNB -19; settings: Homo sapiens, SNB-19, 48 h
UACC-62 = assay: In vitro cytotoxicity (NCI protocol, SRB), UACC-62; settings: Homo sapiens, UACC-62, 48 h
OVCAR-3 = assay: In vitro cytotoxicity (NCI protocol, SRB), OVCAR-3; settings: Homo sapiens, OVCAR-3, 48 h
OVCAR-4 = assay: In vitro cytotoxicity (NCI protocol, SRB), OVCAR-4; settings: Homo sapiens, OVCAR-4, 48 h
OVCAR-5 = assay: In vitro cytotoxicity (NCI protocol, SRB), OVCAR-5; settings: Homo sapiens, OVCAR-5, 48 h
OVCAR-8 = assay: In vitro cytotoxicity (NCI protocol, SRB), OVCAR-8; settings: Homo sapiens, OVCAR-8, 48 h
SK-OV-3 = assay: In vitro cytotoxicity (NCI protocol, SRB), SK-OV-3; settings: Homo sapiens, SK-OV-3, 48 h
RXF 393 = assay: In vitro cytotoxicity (NCI protocol, SRB), RXF 393; settings: Homo sapiens, RXF 393, 48 h
HS 578T = assay: In vitro cytotoxicity (NCI protocol, SRB), HS 578T; settings: Homo sapiens, 48 h
MALME-3M = assay: In vitro cytotoxicity (NCI protocol, SRB), MALME-3M; settings: Homo sapiens, 48 h
SK-MEL-5 = assay: In vitro cytotoxicity (NCI protocol, SRB), SK-MEL-5; settings: Homo sapiens, SK-MEL-5, 48 h
RPMI-8226 = assay: In vitro cytotoxicity (NCI protocol, SRB), RPMI-8226; settings: Homo sapiens, RPMI-8226, 48 h
A549/ATCC = assay: In vitro cytotoxicity (NCI protocol, SRB), A549/ATCC; settings: Homo sapiens, A549, 48 h
SK-MEL-28 = assay: In vitro cytotoxicity (NCI protocol, SRB), SK-MEL-28; settings: Homo sapiens, SK-MEL-28, 48 h
MDA-MB-435 = assay: In vitro cytotoxicity (NCI protocol, SRB), MDA-MB-435 (melanoma panel); settings: Melanoma MDA-MB-435, 48 h exposure

SMILES	GI50 (HL-60(TB))	GI50 (SR)	GI50 (HT29)	GI50 (A498)	GI50 (PC-3)	GI50 (HOP92)	GI50 (786-0)	GI50 (MOLT-4)	GI50 (TK-10)	GI50 (HOP-62)	GI50 (HCT-15)	GI50 (SW-620)	GI50 (SF-268)	GI50 (SF-295)	GI50 (SF-539)	GI50 (DU-145)	GI50 (HCT-116)	GI50 (SNB -19)	GI50 (UACC-62)	GI50 (OVCAR-3)	also measured
COc1ccc(S(=O)(=O)Nc2cc(/C=C\c3cc(OC)c(OC)c(OC)c3)ccc2OC)cc1 [12a, (Z)-4-methoxy-N-(2-methoxy-5-(3,4,5-trimethoxystyryl)phenyl)benzenesulfonamide]	195 nM	70.9 nM	81 nM	35.3 nM	124 nM	97.4 nM	361 nM	388 nM	76.8 nM	41 nM	62.3 nM	78.5 nM	401 nM	39.3 nM	126 nM	341 nM	79.7 nM	352 nM	49 nM	52.8 nM	GI50 (OVCAR-4): 581 nM; GI50 (OVCAR-5): 323 nM; GI50 (OVCAR-8): 276 nM; GI50 (SK-OV-3): 96.3 nM; GI50 (RXF 393): 81.4 nM; GI50 (HS 578T): 226 nM; GI50 (MALME-3M): 52.7 nM; GI50 (SK-MEL-5): 48.8 nM; GI50 (RPMI-8226): 319 nM; GI50 (A549/ATCC): 159 nM; GI50 (SK-MEL-28): 143 nM; GI50 (MDA-MB-435; Homo sapiens, MDA-MB-435, 48 h): 27.4 nM
COc1ccc(/C=C\c2cc(OC)c(OC)c(OC)c2)c(NS(=O)(=O)c2ccc(Cl)cc2)c1O [17c, (Z)-4-chloro-N-(2-hydroxy-3-methoxy-6-(3,4,5-trimethoxystyryl)phenyl)benzenesulfonamide]	33.1 nM	30.6 nM	2760 nM	22.9 nM	153 nM	2360 nM	572 nM	31.5 nM	998 nM	671 nM	53 nM	69.4 nM	380 nM	256 nM	37 nM	200 nM	114 nM	807 nM	63.5 nM	60.2 nM	GI50 (OVCAR-4): 97.2 nM; GI50 (OVCAR-5): 2860 nM; GI50 (OVCAR-8): 294 nM; GI50 (SK-OV-3): 229 nM; GI50 (RXF 393): 35.5 nM; GI50 (HS 578T): 292 nM; GI50 (SK-MEL-5): 51 nM; GI50 (RPMI-8226): 207 nM; GI50 (A549/ATCC): 270 nM; GI50 (SK-MEL-28): 84.1 nM; GI50 (MDA-MB-435; Homo sapiens, MDA-MB-435, 48 h): 22.2 nM
COc1cc(/C=C\c2cc(OC)c(OC)c(OC)c2)cc(NS(=O)(=O)c2ccc(Cl)cc2)c1OC [13c, (Z)-4-chloro-N-(2,3-dimethoxy-5-(3,4,5-trimethoxystyryl)phenyl)benzenesulfonamide]	249 nM	406 nM	348 nM	179 nM	395 nM	720 nM	666 nM	672 nM	779 nM	414 nM	399 nM	343 nM	1100 nM	319 nM	303 nM	507 nM	469 nM	745 nM	435 nM	364 nM	GI50 (OVCAR-4): 1530 nM; GI50 (OVCAR-5): 726 nM; GI50 (OVCAR-8): 600 nM; GI50 (SK-OV-3): 449 nM; GI50 (RXF 393): 272 nM; GI50 (HS 578T): 351 nM; GI50 (SK-MEL-5): 297 nM; GI50 (RPMI-8226): 387 nM; GI50 (A549/ATCC): 716 nM; GI50 (SK-MEL-28): 1140 nM; GI50 (MDA-MB-435; Homo sapiens, MDA-MB-435, 48 h): 188 nM
COc1ccc(S(=O)(=O)Nc2c(/C=C\c3cc(OC)c(OC)c(OC)c3)ccc(OC)c2O)cc1 [17a, (Z)—N-(2-hydroxy-3-methoxy-6-(3,4,5-trimethoxystyryl)phenyl)-4-methoxybenzenesulfonamide]	23.5 nM	31.9 nM	1400 nM	18.8 nM	40.8 nM	1600 nM	375 nM	42.3 nM	73.2 nM	39.7 nM	36.6 nM	40.8 nM	83.9 nM	33.9 nM	29.3 nM	42.5 nM	32 nM	60.2 nM	38.9 nM	33.9 nM	GI50 (OVCAR-4): 76.3 nM; GI50 (OVCAR-5): 1020 nM; GI50 (OVCAR-8): 46.6 nM; GI50 (SK-OV-3): 29.6 nM; GI50 (RXF 393): 31.8 nM; GI50 (HS 578T): 47 nM; GI50 (MALME-3M): 1510 nM; GI50 (SK-MEL-5): 36.3 nM; GI50 (RPMI-8226): 46.9 nM; GI50 (A549/ATCC): 45.9 nM; GI50 (MDA-MB-435; Homo sapiens, MDA-MB-435, 48 h): 19 nM; GI50 (MDA-MB-435): 19.2 nM
